Measured values: US10428044B2, “3-amino-1,5,6,7-tetrahydro-4H-indol-4-ones” (Bayer Pharma Aktiengesellschaft, priority 2014, dated 2019)

What follows are compounds tested against (recombinant) catalytic domain of human Bub1 (amino acids 704-1085) (Homo sapiens (Human), UniProt O43683) (assay: Bub1 kinase assay (TR-FRET)). Details: ATP 10 μM final, peptide substrate 1 μM final, 60 min at 22° C., read-out: Biological Assay: Bub1 kinase assay median IC50.
Chain of (recombinant) catalytic domain of human Bub1 (amino acids 704-1085) (O43683 704-1085): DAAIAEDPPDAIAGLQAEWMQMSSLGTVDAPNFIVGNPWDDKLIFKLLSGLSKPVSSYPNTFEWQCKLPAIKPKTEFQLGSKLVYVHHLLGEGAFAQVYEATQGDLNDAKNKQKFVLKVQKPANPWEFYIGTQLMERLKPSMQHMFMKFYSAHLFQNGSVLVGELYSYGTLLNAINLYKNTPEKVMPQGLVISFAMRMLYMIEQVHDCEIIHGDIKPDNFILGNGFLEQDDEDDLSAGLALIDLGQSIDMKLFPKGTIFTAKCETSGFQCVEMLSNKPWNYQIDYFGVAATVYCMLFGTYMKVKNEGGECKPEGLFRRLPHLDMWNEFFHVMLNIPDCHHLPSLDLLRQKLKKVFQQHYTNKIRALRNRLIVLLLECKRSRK
Format: biochemical
In short: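 Readout was TR-FRET between a Eu-labeled antibody complex recognizing phosphoserine and streptavidin-XL665 on the biotinylated peptide, after EDTA stop and 1 h at 22° C. The kinase reaction ran for 60 min at 22° C. Values are means or medians of repeat tests, from 4-parameter fits normalized to enzyme-free and inhibitor-free controls.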
For `O=C1CC(CCl)Cc2[nH]c(-c3ccncc3)c(Nc3ccccc3)c21` (stereo not shown) [Example 443, 6-(chloromethyl)-3-(phenylamino)-2-(pyridin-4-yl)-1,5,6,7-tetrahydro-4H-indol-4-one], the IC50 was 5.05 nM. For `CC(=O)Nc1cc(-c2[nH]c3c(c2Nc2ccccc2)C(=O)CC(CCl)C3)ccn1` (stereo not shown) [Example 444, N-{4-[6-(chloromethyl)-4-oxo-3-(phenylamino)-4,5,6,7-tetrahydro-1H-indol-2-yl]pyridin-2-yl}acetamide], the IC50 was 4.61 nM. With `CC1(C)CC(=O)c2c([nH]c(-c3ccncc3)c2Nc2ccccc2)C1O` (stereo not shown) [Example 445, 7-hydroxy-6,6-dimethyl-3-(phenylamino)-2-(pyridin-4-yl)-1,5,6,7-tetrahydro-4H-indol-4-one] the IC50 was 10 nM. With `O=C1CCC(O)c2[nH]c(-c3ccncc3)c(Nc3ccccc3)c21` (stereo not shown) [Example 446, 7-hydroxy-3-(phenylamino)-2-(pyridin-4-yl)-1,5,6,7-tetrahydro-4H-indol-4-one] the IC50 was 40.1 nM. Compound `Cn1cc(C(=O)Nc2cc(-c3[nH]c4c(c3Nc3ccccc3)C(=O)CCC4)ccn2)cn1` [Example 447, 1-methyl-N-{4-[4-oxo-3-(phenylamino)-4,5,6,7-tetrahydro-1H-indol-2-yl]pyridin-2-yl}-1H-pyrazole-4-carboxamide] has an IC50 of 11.2 nM. For `CC(C)(C)n1cc(C(=O)Nc2cc(-c3[nH]c4c(c3Nc3ccccc3)C(=O)CCC4)ccn2)cn1` [Example 448, 1-tert-butyl-N-{4-[4-oxo-3-(phenylamino)-4,5,6,7-tetrahydro-1H-indol-2-yl]pyridin-2-yl}-1H-pyrazole-4-carboxamide], the IC50 was 8.93 nM. `O=C(Nc1cc(-c2[nH]c3c(c2Nc2ccccc2)C(=O)CCC3)ccn1)c1cnn(Cc2ccccc2)c1` [Example 449, 1-benzyl-N-{4-[4-oxo-3-(phenylamino)-4,5,6,7-tetrahydro-1H-indol-2-yl]pyridin-2-yl}-1H-pyrazole-4-carboxamide] gave an IC50 of 4.38 nM. `COc1ccc(Cn2cc(C(=O)Nc3cc(-c4[nH]c5c(c4Nc4ccccc4)C(=O)CCC5)ccn3)cn2)cc1` [Example 450, 1-(4-methoxybenzyl)-N-{4-[4-oxo-3-(phenylamino)-4,5,6,7-tetrahydro-1H-indol-2-yl]pyridin-2-yl}-1H-pyrazole-4-carboxamide] gave an IC50 of 6.24 nM. `O=C(Nc1cc(-c2[nH]c3c(c2Nc2ccccc2)C(=O)CCC3)ccn1)c1ccc(F)c(F)c1` [Example 451, 3,4-difluoro-N-{4-[4-oxo-3-(phenylamino)-4,5,6,7-tetrahydro-1H-indol-2-yl]pyridin-2-yl}benzamide] was tested, and the IC50 was 8.82 nM. For `O=C(Nc1cc(-c2[nH]c3c(c2Nc2ccccc2)C(=O)CCC3)ccn1)c1cc(F)cc(F)c1` [Example 452, 3,5-difluoro-N-{4-[4-oxo-3-(phenylamino)-4,5,6,7-tetrahydro-1H-indol-2-yl]pyridin-2-yl}benzamide], the IC50 was 19.2 nM. For `COc1cc(C(=O)Nc2cc(-c3[nH]c4c(c3Nc3ccccc3)C(=O)CCC4)ccn2)ccc1F` [Example 453, 4-fluoro-3-methoxy-N-{4-[4-oxo-3-(phenylamino)-4,5,6,7-tetrahydro-1H-indol-2-yl]pyridin-2-yl}benzamide], the IC50 was 10 nM. For `Cn1ccc(C(=O)Nc2cc(-c3[nH]c4c(c3Nc3ccccc3)C(=O)CCC4)ccn2)n1` [Example 454, 1-methyl-N-{4-[4-oxo-3-(phenylamino)-4,5,6,7-tetrahydro-1H-indol-2-yl]pyridin-2-yl}-1H-pyrazole-3-carboxamide], the IC50 was 7.33 nM. Work on `O=C1CCCc2[nH]c(-c3ccncc3OCC3CC3)c(Nc3ccccc3)c21` [Example 455, 2-[3-(cyclopropylmethoxy)pyridin-4-yl]-3-(phenylamino)-1,5,6,7-tetrahydro-4H-indol-4-one] yielded an IC50 of 24.4 nM. For `CCCOc1cnccc1-c1[nH]c2c(c1Nc1ccccc1)C(=O)CCC2` [Example 456, 3-(phenylamino)-2-(3-propoxypyridin-4-yl)-1,5,6,7-tetrahydro-4H-indol-4-one], the IC50 was 73.3 nM. With `O=C1CCCc2[nH]c(-c3ccncc3OCC(F)F)c(Nc3ccccc3)c21` [Example 457, 2-[3-(2,2-difluoroethoxy)pyridin-4-yl]-3-(phenylamino)-1,5,6,7-tetrahydro-4H-indol-4-one] the IC50 was 53.5 nM. Work on `O=C1CCCc2[nH]c(-c3ccncc3OCC(F)(F)F)c(Nc3ccccc3)c21` [Example 458, 3-(phenylamino)-2-[3-(2,2,2-trifluoroethoxy)pyridin-4-yl]-1,5,6,7-tetrahydro-4H-indol-4-one] yielded an IC50 of 78.7 nM. `O=C1CCCc2[nH]c(-c3ccncc3OCCO)c(Nc3ccccc3)c21` [Example 459, 2-[3-(2-hydroxyethoxy)pyridin-4-yl]-3-(phenylamino)-1,5,6,7-tetrahydro-4H-indol-4-one] gave an IC50 of 58.8 nM. Work on `CC1(C)OC[C@@H](C(=O)Nc2cc(-c3[nH]c4c(c3Nc3ccccc3)C(=O)CCC4)ccn2)O1` [Example 460, (4S)-2,2-dimethyl-N-{4-[4-oxo-3-(phenylamino)-4,5,6,7-tetrahydro-1H-indol-2-yl]pyridin-2-yl}-1,3-dioxolane-4-carboxamide] yielded an IC50 of 19.7 nM. `CC(=O)Nc1cc(-c2[nH]c3c(c2Nc2ccccc2)C(=O)CC(CF)C3)ccn1` (stereo not shown) [Example 461, N-{4-[6-(fluoromethyl)-4-oxo-3-(phenylamino)-4,5,6,7-tetrahydro-1H-indol-2-yl]pyridin-2-yl}acetamide] showed an IC50 of 6.88 nM. `O=C(COc1ccc(F)cc1)Nc1cc(-c2[nH]c3c(c2Nc2ccccc2)C(=O)CCC3)ccn1` [Example 462, N-[4-(3-anilino-4-oxo-4,5,6,7-tetrahydro-1H-indol-2-yl)pyridin-2-yl]-2-(4-fluorophenoxy)acetamide] was tested, and the IC50 was 18.2 nM. Compound `Cn1ccnc1CC(=O)Nc1cc(-c2[nH]c3c(c2Nc2ccccc2)C(=O)CCC3)ccn1` [Example 463, N-[4-(3-anilino-4-oxo-4,5,6,7-tetrahydro-1H-indol-2-yl)pyridin-2-yl]-2-(1-methyl-1H-imidazol-2-yl)acetamide] has an IC50 of 142 nM. Work on `CC1(C)CC(=O)c2c([nH]c(-c3ccncc3O)c2Nc2ccccc2)C1` [Example 464, 3-anilino-2-(3-hydroxypyridin-4-yl)-6,6-dimethyl-1,5,6,7-tetrahydro-4H-indol-4-one] yielded an IC50 of 58.9 nM. For `CC1(C)CC(=O)c2c([nH]c(-c3ccnc(NC(=O)c4ccn[nH]4)c3)c2Nc2ccccc2)C1` [Example 465, N-{4-[6,6-dimethyl-4-oxo-3-(phenylamino)-4,5,6,7-tetrahydro-1H-indol-2-yl]pyridin-2-yl}-1H-pyrazole-3-carboxamide], the IC50 was 7.19 nM. `CC1(C)CC(=O)c2c([nH]c(-c3ccnc(NC(=O)c4cc(F)cc(F)c4)c3)c2Nc2ccccc2)C1` [Example 467, N-{4-[6,6-dimethyl-4-oxo-3-(phenylamino)-4,5,6,7-tetrahydro-1H-indol-2-yl]pyridin-2-yl}-3,5-difluorobenzamide] gave an IC50 of 23.3 nM. `CC1(C)CC(=O)c2c([nH]c(-c3ccnc(OCc4ccccc4)c3)c2Nc2ccccc2)C1` [Example 468, 2-[2-(benzyloxy)pyridin-4-yl]-6,6-dimethyl-3-(phenylamino)-1,5,6,7-tetrahydro-4H-indol-4-one] showed an IC50 of over 20000 nM. In the case of `CC1(C)CC(=O)c2c([nH]c(-c3ccnc(O)c3)c2Nc2ccccc2)C1` [Example 469, 2-(2-hydroxypyridin-4-yl)-6,6-dimethyl-3-(phenylamino)-1,5,6,7-tetrahydro-4H-indol-4-one], the IC50 is reported as 2160 nM. `O=C(Nc1cc(-c2[nH]c3c(c2Nc2ccccc2)C(=O)CC2(CC2)C3)ccn1)c1cocn1` [Example 470, N-{4-[4′-oxo-3′-(phenylamino)-1′,4′,5′,7′-tetrahydrospiro[cyclopropane-1,6′-indol]-2′-yl]pyridin-2-yl}-1,3-oxazole-4-carboxamide] was tested, and the IC50 was 4.49 nM. `CO/N=C1\CC(C)(C)Cc2[nH]c(-c3ccncc3)c(Nc3ccccc3)c21` [Example 471, 4-(methoxyimino)-6,6-dimethyl-N-phenyl-2-(pyridin-4-yl)-4,5,6,7-tetrahydro-1H-indol-3-amine] showed an IC50 of 4430 nM. Compound `CC1(C)CC(=O)c2c([nH]c(-c3ccnc(NC(=O)c4cnn(C(C)(C)C)c4)c3)c2Nc2ccccc2)C1` [Example 472, 1-tert-butyl-N-{4-[6,6-dimethyl-4-oxo-3-(phenylamino)-4,5,6,7-tetrahydro-1H-indol-2-yl]pyridin-2-yl}-1H-pyrazole-4-carboxamide] has an IC50 of 5.04 nM. Work on `CC1(C)CC(=O)c2c([nH]c(-c3ccnc(NC(=O)c4ccc(F)c(F)c4)c3)c2Nc2ccccc2)C1` [Example 473, N-{4-[6,6-dimethyl-4-oxo-3-(phenylamino)-4,5,6,7-tetrahydro-1H-indol-2-yl]pyridin-2-yl}-3,4-difluorobenzamide] yielded an IC50 of 10.3 nM. In the case of `COc1cc(C(=O)Nc2cc(-c3[nH]c4c(c3Nc3ccccc3)C(=O)CC(C)(C)C4)ccn2)ccc1F` [Example 474, N-{4-[6,6-dimethyl-4-oxo-3-(phenylamino)-4,5,6,7-tetrahydro-1H-indol-2-yl]pyridin-2-yl}-4-fluoro-3-methoxybenzamide], the IC50 is reported as 8.63 nM. `CC1(C)CC(=O)c2c([nH]c(-c3ccnc(NC(=O)C(C)(C)F)c3)c2Nc2ccccc2)C1` [Example 475, N-{4-[6,6-dimethyl-4-oxo-3-(phenylamino)-4,5,6,7-tetrahydro-1H-indol-2-yl]pyridin-2-yl}-2-fluoro-2-methylpropanamide] gave an IC50 of 38.7 nM. Compound `CC1(C)CC(=O)c2c([nH]c(-c3ccnc(NC(=O)COCc4ccccc4)c3)c2Nc2ccccc2)C1` [Example 476, 2-(benzyloxy)-N-{4-[6,6-dimethyl-4-oxo-3-(phenylamino)-4,5,6,7-tetrahydro-1H-indol-2-yl]pyridin-2-yl}acetamide] has an IC50 of 8.04 nM. `CC1(C)CC(=O)c2c([nH]c(-c3ccnc(NC(=O)C4CC4(F)F)c3)c2Nc2ccccc2)C1` (stereo not shown) [Example 477, N-{4-[6,6-dimethyl-4-oxo-3-(phenylamino)-4,5,6,7-tetrahydro-1H-indol-2-yl]pyridin-2-yl}-2,2-difluorocyclopropanecarboxamide] showed an IC50 of 6.62 nM.
